Where “and” joins values, the source holds several entries; their conditions need not be identical. Equal entries are not always repeated.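 Each compound was tested at five concentrations against cells in 96-well plates for 48 hours. GI50 is the concentration that inhibits growth by half. The concentration for full growth arrest is given as TGI.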

These results are taken from PubChem BioAssay (NCI).

Among the test systems are HT29 colon; UACC-257 melanoma; SF-539 CNS; HCT-116 colon; IGROV1 ovarian; NCI/ADR-RES ovarian; T-47D breast; SN12C renal; KM12 colon; OVCAR-8 ovarian.
Assay in all cases: NCI-60 cell line screen, 48 h

`C/C(=C(\c1ccc(OCCN2CCCCCC2)cc1)c1ccc(OC(=O)c2ccccc2)cc1)c1ccc(Cl)cc1`: the GI50 in the assay with HT29 colon was 1.28 µM; in the assay with UACC-257 melanoma, 5.34 µM; in the assay on SF-539 CNS, 3.79 µM; in the assay with HCT-116 colon, 1.62 µM; in the assay with IGROV1 ovarian it was 4.36 µM; in the assay with NCI/ADR-RES ovarian, 4.56 µM. For the same compound, the GI50 is 1.76 µM in the assay with T-47D breast, 4.21 µM in the assay with SN12C renal, 3.14 µM with KM12 colon and 5.15 µM in the assay on OVCAR-8 ovarian. The TGI turned out to be 4.57 µM with HT29 colon; 10.4 µM in the assay on UACC-257 melanoma; 8.31 µM with SF-539 CNS; 6.05 µM in the assay with HCT-116 colon; 10.7 µM in the assay on IGROV1 ovarian; 11.2 µM with NCI/ADR-RES ovarian. Moreover, the TGI in the assay on T-47D breast is 7.47 µM; in the assay on SN12C renal it was 9.53 µM; in the assay on KM12 colon it was 8.72 µM; with OVCAR-8 ovarian it was 10.5 µM.
As for `CC[C@@H](C)/C=C(C)/C=C/C(=O)c1c(O)c(-c2ccc(O)cc2)cn(O)c1=O`, the GI50 with HT29 colon is 3.22 µM; with UACC-257 melanoma, 0.317 µM; in the assay with SF-539 CNS it was 0.369 µM; in the assay on HCT-116 colon, 0.395 µM; in the assay with IGROV1 ovarian, 0.421 µM; in the assay on NCI/ADR-RES ovarian, 0.327 µM. The GI50 was 0.609 µM in the assay with T-47D breast, 0.391 µM with SN12C renal, 1.99 µM in the assay on KM12 colon and 0.341 µM in the assay on OVCAR-8 ovarian. Also, the TGI with HT29 colon was determined as 11.4 µM; with UACC-257 melanoma it was 6.95 µM; in the assay with SF-539 CNS, 5.83 µM; with HCT-116 colon it was 13 µM; in the assay on IGROV1 ovarian, 11.4 µM; with NCI/ADR-RES ovarian, 10.7 µM. Further, the TGI in the assay on T-47D breast was 28.5 µM; with SN12C renal it was 12.3 µM; in the assay on KM12 colon, 12.7 µM; in the assay with OVCAR-8 ovarian, 12 µM.
In the case of `CC(C)CCCCCCCCCCCCC(=O)NCC(=O)NC1C(O)C(O)C(Nc2ncnc3nc[nH]c23)OC1C(O)CO` (stereo not given), the TGI was 0.0109 µM and 0.0666 µM and 0.0148 µM with HT29 colon; 0.00755 µM and 0.0084 µM in the assay on IGROV1 ovarian; 0.124 µM and 0.0422 µM in the assay with NCI/ADR-RES ovarian; 0.917 µM with T-47D breast; 0.0729 µM and 0.0145 µM in the assay on SN12C renal; 0.0479 µM and 0.0235 µM with KM12 colon. The GI50 is 0.005 µM in the assay on IGROV1 ovarian; 0.00574 µM and 0.005 µM with SN12C renal.
As to `O=C(NCC1CCCO1)c1ccc(NC2=C(Cl)C(=O)N(Cc3ccccc3)C2=O)cc1` (stereo not given), the GI50 is 22.2 µM in the assay with HT29 colon; 17 µM in the assay with UACC-257 melanoma; 15.4 µM with SF-539 CNS; 13.3 µM in the assay on HCT-116 colon; 2.93 µM in the assay with IGROV1 ovarian; 23.9 µM in the assay with NCI/ADR-RES ovarian. For the same compound, the GI50 in the assay on T-47D breast is 30.5 µM; in the assay on SN12C renal, 0.0654 µM; in the assay with KM12 colon it was 17.1 µM; in the assay with OVCAR-8 ovarian, 16.7 µM. Moreover, the TGI was 88 µM in the assay on HT29 colon; 45.6 µM with UACC-257 melanoma; 31.2 µM in the assay on SF-539 CNS; 26.2 µM in the assay with HCT-116 colon; 7.52 µM in the assay with IGROV1 ovarian; 51.4 µM with NCI/ADR-RES ovarian. Further, the TGI with T-47D breast is more than 100 µM; in the assay on SN12C renal it was 7.32 µM; with KM12 colon it was 35 µM; with OVCAR-8 ovarian, 54.6 µM.
Turning to `Nc1ccccc1C(=O)CCC1C(=O)NC(=S)NC1=O`, the TGI in the assay on HT29 colon, in the assay on UACC-257 melanoma, in the assay on SF-539 CNS, with HCT-116 colon, in the assay on IGROV1 ovarian and in the assay with NCI/ADR-RES ovarian was more than 100 µM each time. The TGI in the assay with T-47D breast, with KM12 colon and with OVCAR-8 ovarian was more than 100 µM throughout.
With `CC1(C)CCCC(C)(C2CCC3(C)C2C(O)CC2C4(C)CCC(O)C(C)(C)C4CCC23C)O1` (stereo not given), the TGI in the assay with HT29 colon, in the assay with UACC-257 melanoma, in the assay on SF-539 CNS, with HCT-116 colon, with IGROV1 ovarian and in the assay on NCI/ADR-RES ovarian was more than 100 µM throughout. Further, the TGI with T-47D breast, in the assay with SN12C renal, in the assay with KM12 colon and in the assay with OVCAR-8 ovarian was more than 100 µM in each case.
As for `CCCCCCCCCCCCOC1C(CNC(=O)C2OC3OC(C)(C)OC3C2NC(=O)CN2CCN(c3ccc(OC)cc3)CC2)OC2OC(C)(C)OC21` (stereo not given), the GI50 in the assay with HT29 colon was 2.12 µM; in the assay with UACC-257 melanoma, 3.83 µM; in the assay on SF-539 CNS, 6.09 µM; in the assay with HCT-116 colon it was 3.26 µM; with IGROV1 ovarian, 4.24 µM; with NCI/ADR-RES ovarian, 4.03 µM. Also, the GI50 is 4.33 µM with T-47D breast, 3.41 µM in the assay with SN12C renal, 3.35 µM in the assay on KM12 colon and 3.91 µM with OVCAR-8 ovarian. Moreover, the TGI in the assay with HT29 colon was 5.12 µM; with UACC-257 melanoma, 12.7 µM; in the assay on SF-539 CNS it was 22 µM; in the assay with HCT-116 colon, 18.5 µM; in the assay on IGROV1 ovarian, 16.4 µM; in the assay on NCI/ADR-RES ovarian, 16.1 µM. The TGI with T-47D breast was found to be 23.4 µM; in the assay on SN12C renal, 11.7 µM; with KM12 colon, 10.9 µM; with OVCAR-8 ovarian, 12.9 µM.
In the case of `COc1cc(C2c3cc4c(cc3C(OC(=O)C[n+]3ccccc3)C3COC(=O)C23)OCO4)cc(OC)c1OC` (stereo not given), the GI50 was less than 0.01 µM with HT29 colon; more than 100 µM with UACC-257 melanoma; less than 0.0154 µM with SF-539 CNS; less than 0.0181 µM in the assay with HCT-116 colon; less than 0.0207 µM in the assay with IGROV1 ovarian; less than 0.0169 µM in the assay with NCI/ADR-RES ovarian. The GI50 is 41.2 µM in the assay on T-47D breast, less than 0.0247 µM in the assay with SN12C renal, less than 0.0168 µM with KM12 colon and less than 0.021 µM in the assay with OVCAR-8 ovarian. Besides, the TGI was more than 100 µM in the assay with HT29 colon; more than 100 µM with UACC-257 melanoma; less than 0.0278 µM in the assay on SF-539 CNS; more than 100 µM in the assay on HCT-116 colon; more than 100 µM in the assay with IGROV1 ovarian; more than 100 µM in the assay on NCI/ADR-RES ovarian. The TGI in the assay on T-47D breast, in the assay with SN12C renal, with KM12 colon and in the assay with OVCAR-8 ovarian was more than 100 µM throughout.
For `CC(C)COc1nc2c(c(=O)n(C)c(=O)n2C)n1C`, the GI50 in the assay with UACC-257 melanoma was more than 100 µM; in the assay with SF-539 CNS, more than 100 µM; in the assay with HCT-116 colon, more than 100 µM; with IGROV1 ovarian, 0.544 µM; in the assay on NCI/ADR-RES ovarian, more than 100 µM; in the assay on T-47D breast it was more than 100 µM. The GI50 in the assay on SN12C renal, with KM12 colon and in the assay on OVCAR-8 ovarian was more than 100 µM in each case. Further, the TGI with UACC-257 melanoma, in the assay on SF-539 CNS, in the assay with HCT-116 colon, with IGROV1 ovarian, in the assay on NCI/ADR-RES ovarian and in the assay with T-47D breast was more than 100 µM throughout. Further, the TGI in the assay on SN12C renal, with KM12 colon and with OVCAR-8 ovarian was more than 100 µM each time.
